The values below come from patent US20120220563A1, “Substituted piperidines” (BAYER PHARMA AKTIENGESELLSCHAFT, priority 2009, published 2012).

What is called pIC50 is the negative decadic logarithm of the IC50, by convention in mol/L.

For the assay, the system named is platelet aggregation in platelet-rich plasma triggered by thrombin receptor agonist (TRAP6, SFLLRN). As to the kind of experiment: Platelet aggregation in plasma (TRAP6/SFLLRN-triggered, turbidimetry according to Born). In kind it is cell-based. To be noted: Homo sapiens, 10 min, platelet-rich plasma of healthy volunteers, 10 min at 37° C. with test substance, concentration which inhibits aggregation by 50%. As for the experimental part:
To determine the platelet aggregation, blood from healthy volunteers of both genders, who had not received any platelet aggregation-influencing medication for the last ten days, is used. The blood is taken up into monovettes (Sarstedt, Nümbrecht, Germany) which contain, as anticoagulant, sodium citrate 3.8% (1 part of citrate+9 parts of blood). To obtain platelet-rich plasma, the citrated whole blood is centrifuged at 140 g for 20 min
For the aggregation measurements, aliquots of the platelet-rich plasma with increasing concentrations of test substance are incubated at 37° C. for 10 min. Subsequently, aggregation is triggered by addition of a thrombin receptor agonist (TRAP6, SFLLRN) in an aggregometer and determined at 37° C. by means of the turbidimetry method according to Born (Born, G. V. R., Cross M. J., The Aggregation of Blood Platelets; J. Physiol. 1963, 168, 178-195). The SFLLRN concentration leading to maximum aggregation is, if appropriate, determined individually for each donor.
To calculate the inhibitory effect, the maximum increase of light transmission (amplitude of the aggregation curve in %) is determined within 5 minutes after addition of the agonist in the presence and absence of test substance, and the inhibition is calculated. The inhibition curves are used to calculate the concentration which inhibits aggregation by 50%.

pIC50: −log10 of the molar value.

Consider `CCOc1noc(C2CC(c3ccc(CC)c(F)c3)CN(C(=O)N3CCS(=O)(=O)CC3)C2)n1` (racemic) [Example 101, (1,1-Dioxidothiomorpholin-4-yl)[3-(3-ethoxy-1,2,4-oxadiazol-5-yl)-5-(4-ethyl-3-fluorophenyl)-piperidin-1-yl]methanone], for which the pIC50 was 9.52. In the case of `CCN(CC)c1noc(C2CC(c3ccc(C(F)(F)F)cc3)CN(C(=O)N3CCOCC3)C2)n1` (single isomer, unassigned) [Example 6, {3-[3-(Diethylamino)-1,2,4-oxadiazol-5-yl]-5-[4-(trifluoromethyl)phenyl]piperidin-1-yl}-(morpholin-4-yl)methanone] it was 9.17; in that of `CCc1ccc(C2CC(c3nc(OCCOC)no3)CN(C(=O)N3CCS(=O)(=O)CC3)C2)cc1` (single isomer, unassigned) [Example 63, (1,1-Dioxidothiomorpholin-4-yl){3-(4-ethylphenyl)-5-[3-(2-methoxyethoxy)-1,2,4-oxadiazol-5-yl]-piperidin-1-yl}-methanone], 9.62. The compound `CCOc1noc(C2CC(c3ccc(CC(F)(F)F)cc3)CN(C(=O)N3CC[S+]([O-])CC3)C2)n1` (single isomer, unassigned) [Example 66, {3-(3-Ethoxy-1,2,4-oxadiazol-5-yl)-5-[4-(2,2,2-trifluoroethyl)phenyl]piperidin-1-yl}(1-oxidothio-morpholin-4-yl)methanone] had a pIC50 of 9.27. Compound `CCOc1noc(C2CC(c3ccc(CC(F)(F)F)cc3)CN(C(=O)N3CCS(=O)(=O)CC3)C2)n1` (single isomer, unassigned) [Example 69, (1,1-Dioxidothiomorpholin-4-yl) {3-(3-ethoxy-1,2,4-oxadiazol-5-yl)-5-[4-(2,2,2-trifluoroethyl)-phenyl]piperidin-1-yl}methanone] gave a negative logarithm of the IC50 (pIC50) of 9.60.
